From patent publication US12544374B2, “AZA-quinoline compounds and uses thereof” (Novartis AG, priority 2019, dated 2026)

Columns and labels:
[1] = target: wild type PRC2 (wtPRC2) complex (Homo sapiens (Human), UniProt Q15910); assay: EZH2 LC-MS assay (LC-Qualified); assay type: biochemical; details: (a) LC-Qualified assay
Protocol: Representative compounds of the invention were serially and separately diluted 3-fold in DMSO to obtain twelve concentrations. […] Solutions (6 μL) of 80 nM wild type PRC2 (wtPRC2) complex and 60 μM SAM in reaction buffer (20 mM Tris, pH 8.0, 0.1% BSA, 0.01% Triton, 0.5 mM DTT) were added to the wells that were then incubated with the test compound for 20 min. A 6 μL solution of 3 μM of the substrate peptide H3K27me1 (histone H3[21-44]-K27me1-biotin) and 6 μM regulatory peptide H3K27me3 (histone H3[21-44]-K27me3) in reaction buffer was added to initiate each reaction. […] The data were fit to a dose response equation using the program Helios to get the IC50 values of the test compound.

EZH2 = EZH2 (Homo sapiens (Human), UniProt Q15910); assay: ELISA (H3K27 methylation) assay in G401 cell; assay type: cell-based; details: (b) ELISA Qualified assay, 48 h
Protocol: Representative compounds of the invention were serially and separately diluted 3-fold in DO to obtain a total of eight or twelve concentrations. Then the compounds were added to G401 cell cultured in 384-well plate at 1:500 dilution to obtain the highest concentration of 20 μM. The cells were further cultured for 48 h before ELISA procedure.
ELISA protocol: Cell lysates were transferred to the wells of a 384-well plate and the final volume was adjusted to 50 μL per well with PBS. The plate was sealed, centrifuged at 2,000 rpm for 2 min and incubated at 4° C. for about 16 h. The plate was washed with TBST buffer (1×TBS (10×TBS: 24.2 g Tris (Sigma, T6066), 80 g NaCl (Sigma, S3014) to 1 L of water and adjust pH to 7.6 with HCl) with 0.1% Tween-20). Blocking buffer (TBST, 5% BSA; 50 μL per well) was added and the plate was incubated for 1 h at rt. The blocking buffer was removed and primary antibody was added (30 μL per well). […] The primary antibody was incubated in the plate at rt for 1 h. The wells were washed with TBST and incubated with secondary antibody for 1 h at rt.
After 1 h of incubation at rt, the wells were washed with TBST. […] The signal was read using a PerkinElmer Envision Reader. The H3K27 methylation readouts were normalized using H3 signal and then percentage inhibition was calculated against the samples treated with DO. The data were fit to a dose response curve using the program Helios to get the IC50 values of the test compound.

Chain of EZH2 (Q15910 whole entry): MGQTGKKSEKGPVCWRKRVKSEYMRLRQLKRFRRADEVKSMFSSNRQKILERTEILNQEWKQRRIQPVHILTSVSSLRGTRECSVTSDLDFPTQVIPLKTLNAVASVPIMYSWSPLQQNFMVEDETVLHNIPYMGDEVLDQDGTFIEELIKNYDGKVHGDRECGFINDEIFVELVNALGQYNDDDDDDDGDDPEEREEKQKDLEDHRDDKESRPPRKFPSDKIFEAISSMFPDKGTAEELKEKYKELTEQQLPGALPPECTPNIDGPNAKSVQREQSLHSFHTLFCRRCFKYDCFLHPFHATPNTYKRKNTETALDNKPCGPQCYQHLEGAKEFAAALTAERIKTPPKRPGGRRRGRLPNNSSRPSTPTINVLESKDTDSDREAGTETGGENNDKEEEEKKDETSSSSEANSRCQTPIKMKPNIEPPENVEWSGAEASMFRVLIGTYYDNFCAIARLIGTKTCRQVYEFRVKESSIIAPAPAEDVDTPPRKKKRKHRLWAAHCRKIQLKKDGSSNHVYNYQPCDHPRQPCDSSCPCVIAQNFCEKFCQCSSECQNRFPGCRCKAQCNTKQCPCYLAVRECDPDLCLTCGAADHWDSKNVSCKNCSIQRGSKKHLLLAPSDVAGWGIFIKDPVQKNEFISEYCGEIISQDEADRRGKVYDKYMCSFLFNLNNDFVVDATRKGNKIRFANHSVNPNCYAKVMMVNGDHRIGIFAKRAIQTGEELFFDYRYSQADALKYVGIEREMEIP
Chain of EZH2 (Q15022 whole entry partner): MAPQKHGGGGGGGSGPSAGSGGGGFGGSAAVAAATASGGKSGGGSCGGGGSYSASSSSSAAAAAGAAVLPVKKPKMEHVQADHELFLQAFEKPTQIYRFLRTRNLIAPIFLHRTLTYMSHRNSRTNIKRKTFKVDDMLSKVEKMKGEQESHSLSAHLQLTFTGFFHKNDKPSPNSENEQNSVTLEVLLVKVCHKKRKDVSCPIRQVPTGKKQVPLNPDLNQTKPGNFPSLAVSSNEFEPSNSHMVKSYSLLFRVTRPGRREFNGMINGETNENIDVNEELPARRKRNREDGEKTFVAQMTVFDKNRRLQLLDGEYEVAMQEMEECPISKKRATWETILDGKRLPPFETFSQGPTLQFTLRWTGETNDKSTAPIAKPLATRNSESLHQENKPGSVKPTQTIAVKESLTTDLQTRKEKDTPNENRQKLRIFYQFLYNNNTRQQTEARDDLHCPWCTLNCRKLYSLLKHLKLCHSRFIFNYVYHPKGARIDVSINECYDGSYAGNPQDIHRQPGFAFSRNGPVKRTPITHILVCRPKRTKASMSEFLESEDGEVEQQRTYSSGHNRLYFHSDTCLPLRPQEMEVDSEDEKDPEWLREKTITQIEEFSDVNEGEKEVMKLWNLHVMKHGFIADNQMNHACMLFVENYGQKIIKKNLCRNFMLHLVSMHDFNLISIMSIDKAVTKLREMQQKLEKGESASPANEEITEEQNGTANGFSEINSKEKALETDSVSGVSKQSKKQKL
Chain of EZH2 (O75530 whole entry partner): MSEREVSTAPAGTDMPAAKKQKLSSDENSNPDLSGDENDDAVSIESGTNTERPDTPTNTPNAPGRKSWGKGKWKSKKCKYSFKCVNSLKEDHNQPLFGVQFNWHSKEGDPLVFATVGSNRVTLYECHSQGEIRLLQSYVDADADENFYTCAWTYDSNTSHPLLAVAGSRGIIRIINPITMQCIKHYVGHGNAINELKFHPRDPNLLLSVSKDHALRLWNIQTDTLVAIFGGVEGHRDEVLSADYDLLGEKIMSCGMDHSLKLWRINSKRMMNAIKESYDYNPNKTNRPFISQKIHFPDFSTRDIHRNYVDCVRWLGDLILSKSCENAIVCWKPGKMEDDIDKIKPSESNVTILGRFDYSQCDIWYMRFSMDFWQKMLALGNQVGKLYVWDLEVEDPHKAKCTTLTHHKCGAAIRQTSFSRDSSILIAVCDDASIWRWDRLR
Chain of EZH2 (Q09028 whole entry partner): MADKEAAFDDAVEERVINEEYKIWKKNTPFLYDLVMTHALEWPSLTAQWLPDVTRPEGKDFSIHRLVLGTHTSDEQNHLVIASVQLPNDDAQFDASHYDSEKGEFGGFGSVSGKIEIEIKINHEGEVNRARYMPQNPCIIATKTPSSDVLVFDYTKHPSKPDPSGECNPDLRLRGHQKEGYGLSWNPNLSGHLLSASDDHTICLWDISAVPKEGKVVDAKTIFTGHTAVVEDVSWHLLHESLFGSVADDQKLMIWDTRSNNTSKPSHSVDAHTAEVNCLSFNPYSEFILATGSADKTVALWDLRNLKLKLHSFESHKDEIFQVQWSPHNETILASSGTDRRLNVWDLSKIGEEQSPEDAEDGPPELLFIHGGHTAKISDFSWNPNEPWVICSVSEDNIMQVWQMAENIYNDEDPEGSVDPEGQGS
Chain of wild type PRC2 (wtPRC2) complex (Q15910 whole entry): as the sequence (Q15910 whole entry) above
Chain of wild type PRC2 (wtPRC2) complex (Q15022 whole entry partner): as the sequence (Q15022 whole entry partner) above
Chain of wild type PRC2 (wtPRC2) complex (O75530 whole entry partner): as the sequence (O75530 whole entry partner) above
Chain of wild type PRC2 (wtPRC2) complex (Q09028 whole entry partner): as the sequence (Q09028 whole entry partner) above
Chain of wild type PRC2 (wtPRC2) complex (Q6ZN18 whole entry partner): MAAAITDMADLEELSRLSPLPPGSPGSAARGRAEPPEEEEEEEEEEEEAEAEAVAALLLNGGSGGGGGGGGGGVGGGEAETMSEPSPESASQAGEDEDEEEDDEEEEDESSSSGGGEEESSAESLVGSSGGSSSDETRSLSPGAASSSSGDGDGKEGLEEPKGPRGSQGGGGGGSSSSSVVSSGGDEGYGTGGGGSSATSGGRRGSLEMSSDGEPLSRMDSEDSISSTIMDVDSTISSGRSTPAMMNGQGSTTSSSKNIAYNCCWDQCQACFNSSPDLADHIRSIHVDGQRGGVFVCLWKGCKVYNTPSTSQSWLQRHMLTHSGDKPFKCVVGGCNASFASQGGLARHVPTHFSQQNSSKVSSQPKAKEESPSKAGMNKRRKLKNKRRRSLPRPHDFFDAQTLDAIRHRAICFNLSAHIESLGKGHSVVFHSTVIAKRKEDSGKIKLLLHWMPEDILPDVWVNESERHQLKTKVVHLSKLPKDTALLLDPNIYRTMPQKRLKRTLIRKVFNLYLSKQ

Compound	IC50 [1] [µM]	IC50 (EZH2) [µM]
2-methoxyethyl (2-((((1,4-trans)-4-((8-chloro-1,7-naphthyridin-2-yl)amino)cyclohexyl)methyl)amino)pyrimidin-5-yl)carbamate [Compound C16]	0.015	0.027
CC(C(=O)N(C)C1COC1)c1cnc(NC[C@H]2CC[C@H](Nc3ccc4ccnc(Cl)c4n3)CC2)nc1 (mixture of isomers) [Compound C55, 2-(2-((((1,4-trans)-4-((8-chloro-1,7-naphthyridin-2-yl)amino)cyclohexyl)methyl)amino)pyrimidin-5-yl)-N-methyl-N-(oxetan-3-yl)propanamide]	0.054	0.002
CC(C(=O)N1CC(O)C1)c1cnc(NC[C@H]2CC[C@H](Nc3ccc4ccnc(Cl)c4n3)CC2)nc1 (mixture of isomers) [Compound C69, 2-(2-((((1,4-trans)-4-((8-chloro-1,7-naphthyridin-2-yl)amino)cyclohexyl)methyl)amino)pyrimidin-5-yl)-1-(3-hydroxyazetidin-1-yl)propan-1-one]	0.035	0.136
COc1nccc2ccc(N[C@H]3CC[C@H](CNc4ncc(NC(=O)C5CNC5)cn4)CC3)nc12 [Compound C2, N-(2-((((1,4-trans)-4-((8-methoxy-1,7-naphthyridin-2-yl)amino)cyclohexyl)methyl)amino)pyrimidin-5-yl)azetidine-3-carboxamide]	0.087	0.783
COc1nccc2ccc(N[C@H]3CC[C@H](CNc4ncc(NC(=O)C5CN(C)C5)cn4)CC3)nc12 [Compound C3, N-(2-((((1,4-trans)-4-((8-methoxy-1,7-naphthyridin-2-yl)amino)cyclohexyl)methyl)amino)pyrimidin-5-yl)-1-methylazetidine-3-carboxamide]	0.054	0.025
COc1nccc2ccc(N[C@H]3CC[C@H](CNc4ncc(C#N)cn4)CC3)nc12 [Compound C4, 2-((((1,4-trans)-4-((8-methoxy-1,7-naphthyridin-2-yl)amino)cyclohexyl)methyl)amino)pyrimidine-5-carbonitrile]	0.046	0.031
COc1nccc2ccc(N[C@H]3CC[C@H](CNc4ncc(C(N)=O)cn4)CC3)nc12 [Compound C5, 2-((((1,4-trans)-4-((8-methoxy-1,7-naphthyridin-2-yl)amino)cyclohexyl)methyl)amino)pyrimidine-5-carboxamide]	0.063	0.062
COc1nccc2ccc(N[C@H]3CC[C@H](CNc4ncc(NC(=O)CO)cn4)CC3)nc12 [Compound C7, 2-hydroxy-N-(2-((((1,4-trans)-4-((8-methoxy-1,7-naphthyridin-2-yl)amino)cyclohexyl)methyl)amino)pyrimidin-5-yl)acetamide]	0.111	0.131
COc1nccc2ccc(N[C@H]3CC[C@H](CNc4ncc(C(=O)NCC(C)O)cn4)CC3)nc12 (stereo partly drawn) [Compound C9, N-(2-hydroxypropyl)-2-((((1,4-trans)-4-((8-methoxy-1,7-naphthyridin-2-yl)amino)cyclohexyl)methyl)amino)pyrimidine-5-carboxamide]	0.105	0.061
COc1nccc2ccc(N[C@H]3CC[C@H](CNc4ncc(C(=O)N5CCOCC5)cn4)CC3)nc12 [Compound C10, (2-((((1,4-trans)-4-((8-methoxy-1,7-naphthyridin-2-yl)amino)cyclohexyl)methyl)amino)pyrimidin-5-yl)(morpholino)methanone]	0.194	0.191
COc1nccc2ccc(N[C@H]3CC[C@H](CNc4ncc(C(=O)N5CCN(C)CC5)cn4)CC3)nc12 [Compound C11, (2-((((1,4-trans)-4-((8-methoxy-1,7-naphthyridin-2-yl)amino)cyclohexyl)methyl)amino)pyrimidin-5-yl)(4-methylpiperazin-1-yl)methanone]	0.12	0.029
COc1nccc2ccc(N[C@H]3CC[C@H](CNc4ncc(-c5ncn[nH]5)cn4)CC3)nc12 [Compound C12, N-((1,4-trans)-4-(((5-(1H-1,2,4-triazol-5-yl)pyrimidin-2-yl)amino)methyl)cyclohexyl)-8-methoxy-1,7-naphthyridin-2-amine]	0.075	0.052
COc1nccc2ccc(N[C@H]3CC[C@H](CNc4ncc(CC(=O)NC5COC5)cn4)CC3)nc12 [Compound C13, 2-(2-((((1,4-trans)-4-((8-methoxy-1,7-naphthyridin-2-yl)amino)cyclohexyl)methyl)amino)pyrimidin-5-yl)-N-(oxetan-3-yl)acetamide]	0.042	0.013
Nc1cnc(NC[C@H]2CC[C@H](Nc3ccc4ccnc(Cl)c4n3)CC2)nc1 [Compound C14, N^2-(((1,4-trans)-4-((8-chloro-1,7-naphthyridin-2-yl)amino)cyclohexyl)methyl)pyrimidine-2,5-diamine]	0.116	0.056
O=C(Nc1cnc(NC[C@H]2CC[C@H](Nc3ccc4ccnc(Cl)c4n3)CC2)nc1)OCCO [Compound C17, 2-hydroxyethyl (2-((((1,4-trans)-4-((8-chloro-1,7-naphthyridin-2-yl)amino)cyclohexyl)methyl)amino)pyrimidin-5-yl)carbamate]	0.088	0.01
O=C(Nc1cnc(NC[C@H]2CC[C@H](Nc3ccc4ccnc(Cl)c4n3)CC2)nc1)OCC1COC1 [Compound C18, Oxetan-3-ylmethyl (2-((((1,4-trans)-4-((8-chloro-1,7-naphthyridin-2-yl)amino)cyclohexyl)methyl)amino)pyrimidin-5-yl)carbamate]	0.028	0.039
O=C(CO)Nc1cnc(NC[C@H]2CC[C@H](Nc3ccc4ccnc(Cl)c4n3)CC2)nc1 [Compound C19, N-(2-((((1,4-trans)-4-((8-chloro-1,7-naphthyridin-2-yl)amino)cyclohexyl)methyl)amino)pyrimidin-5-yl)-2-hydroxyacetamide]		0.069
O=C(CCC(=O)N1CCOCC1)Nc1cnc(NC[C@H]2CC[C@H](Nc3ccc4ccnc(Cl)c4n3)CC2)nc1 [Compound C20, N-(2-((((1,4-trans)-4-((8-chloro-1,7-naphthyridin-2-yl)amino)cyclohexyl)methyl)amino)pyrimidin-5-yl)-4-morpholino-4-oxobutanamide]	0.068	0.127
N#Cc1cnc(NC[C@H]2CC[C@H](Nc3ccc4ccnc(Cl)c4n3)CC2)nc1 [Compound C21, 2-((((1,4-trans)-4-((8-chloro-1,7-naphthyridin-2-yl)amino)cyclohexyl)methyl)amino)pyrimidine-5-carbonitrile]	0.04	0.04
O=C(c1cnc(NC[C@H]2CC[C@H](Nc3ccc4ccnc(Cl)c4n3)CC2)nc1)N1CCOCC1 [Compound C22, (2-((((1,4-trans)-4-((8-chloro-1,7-naphthyridin-2-yl)amino)cyclohexyl)methyl)amino)pyrimidin-5-yl)(morpholino)methanone]	0.046	0.188
Clc1nccc2ccc(NC3CCC(CNc4ncc(COC5COC5)cn4)CC3)nc12 (stereo not drawn) [Compound C35, 8-chloro-N-((1,4-trans)-4-(((5-((oxetan-3-yloxy)methyl)pyrimidin-2-yl)amino)methyl)cyclohexyl)-1,7-naphthyridin-2-amine]		0.024
